From patent US9422248B2 (University of Iowa Research Foundation, priority 2012, dated 2016)
Where “and” joins values, the source holds several entries; their conditions need not be identical. Equal values may be shown once. Read-outs that look alike come from different tables or passages of the source.

How the values were obtained:
rotorod test = experiment: Toxicity by the rotorod test; format: in vivo
Excerpt: All compounds (FIG. 1) were screened in three whole mouse models: the maximal electroshock model (MES), the scMET test (pentylenetetrazole, Metrazol), and the 6 Hz psychomotor seizure model of partial epilepsy (32 mA). Adult male CF No 1 albino mice (26-30 g) were used for the 6 Hz test and 18-25 g mice were used in the MES and scMet tests. The animals are housed, fed, and handled in a manner consistent with the recommendations in the National Council Publication, “Guide for the Care and Use of Laboratory Animals”. […] All compounds were administered ip in polyethylene glycol, 30%.
The 6 Hz test (also known as the minimal clonic seizure, or psychomotor test) involved delivering a corneal stimulus of 32 mA for 3 s. […] Seizures consist of a minimal clonic phase followed by stereotyped automatistic behaviors. Animals not showing such behaviors were considered protected. Toxicity was determined by the rotorod test. For this test, the animal is placed on a rotorod at 6 rpm following dosing. The animal is considered toxic if it falls off the rotorod three times in a 1 min period. The ED50, TD50 and confidence intervals were determined by probit analysis.

6 Hz (32 mA) model = experiment: 6 Hz (32 mA) psychomotor seizure model of partial epilepsy; format: in vivo, mouse; conditions: for Protective effects, number of animals protected/number of animals tested: 6 Hz (32 mA), 100 mg/kg ip
Excerpt: (§1) All compounds (FIG. 1) were screened in three whole mouse models: the maximal electroshock model (MES), the scMET test (pentylenetetrazole, Metrazol), and the 6 Hz psychomotor seizure model of partial epilepsy (32 mA). Adult male CF No 1 albino mice (26-30 g) were used for the 6 Hz test and 18-25 g mice were used in the MES and scMet tests. The animals are housed, fed, and handled in a manner consistent with the recommendations in the National Council Publication, “Guide for the Care and Use of Laboratory Animals”. The animal studies were performed by the NINDS Anticonvulsant Screening Program under IACUC number 09-12014. All compounds were administered ip in polyethylene glycol, 30%.
The 6 Hz test (also known as the minimal clonic seizure, or psychomotor test) involved delivering a corneal stimulus of 32 mA for 3 s. This current elicits psychomotor seizures in 97% of untreated animals. Seizures consist of a minimal clonic phase followed by stereotyped automatistic behaviors. Animals not showing such behaviors were considered protected. Toxicity was determined by the rotorod test. For this test, the animal is placed on a rotorod at 6 rpm following dosing. The animal is considered toxic if it falls off the rotorod three times in a 1 min period. The ED50, TD50 and confidence intervals were determined by probit analysis.

[1] = system: maximal electroshock (MES) model; experiment: maximal electroshock (MES) model; format: in vivo, mouse; conditions: for responders at 30 mg/kg / responders at 100 mg/kg / responders at 300 mg/kg: Mus musculus, MES; for responders at 30 mg/kg: 30 mg/kg ip; for responders at 30 mg/kg / responders at 300 mg/kg: read-out: number of animals protected/number of animals tested; for responders at 100 mg/kg: 100 mg/kg ip, read-out: number of animals protected/number of animals tested (converted); for responders at 300 mg/kg: 300 mg/kg ip
Excerpt: as §1
(§2) The MES model, which generates generalized tonic-clonic seizures, involved pretreating mice with experimental compound, and administering 60 Hz of alternating current (50 mA) for 2 s via corneal electrodes. Prior to current administration, the animal's corneas were treated topically with 1% tetracaine. Animals are considered protected if the hindlimb tonic extensor component is absent. The scMET test was done by pretreating mice with experimental compound and administering 85 mg/kg Metrazol into the loose folds of the skin in the midline of the neck. Eighty-five mg/kg Metrazol is the dose that causes seizures in 97% (CD97) of control animals.

[2] = system: scMET model (pentylenetetrazole, Metrazol); experiment: scMET test (subcutaneous Metrazol); format: in vivo, mouse; conditions: Mus musculus, scMET, read-out: number of animals protected/number of animals tested; for responders at 30 mg/kg: 30 mg/kg ip; for responders at 100 mg/kg: 100 mg/kg ip; for responders at 300 mg/kg: 300 mg/kg ip
Excerpt: as §1, §2

| Compound | Toxicity, animals/number of animals tested (rotorod test; dose 100 mg/kg ip, 0.25 h) | Toxicity, animals/number of animals tested (rotorod test; dose 100 mg/kg ip, 0.5 h) | Toxicity, animals/number of animals tested (rotorod test; dose 100 mg/kg ip, 1 h) | Toxicity, animals/number of animals tested (rotorod test; dose 100 mg/kg ip, 2 h) | Toxicity, animals/number of animals tested (rotorod test; dose 100 mg/kg ip, 4 h) | Protective effects, number of animals protected/number of animals tested (6 Hz (32 mA) model; 2 h) | Protective effects, number of animals protected/number of animals tested (6 Hz (32 mA) model; 4 h) | responders at 30 mg/kg ([1]; 0.5 h) [%] | responders at 100 mg/kg ([1]; 0.5 h) [%] | responders at 100 mg/kg ([1]; 4 h) [%] | responders at 300 mg/kg ([1]; 0.5 h) [%] | responders at 300 mg/kg ([1]; 4 h) [%] | responders at 30 mg/kg ([2]; 0.5 h) [%] | responders at 30 mg/kg ([2]; 4 h) [%] | responders at 100 mg/kg ([2]; 0.5 h) [%] | responders at 100 mg/kg ([2]; 4 h) [%] | responders at 300 mg/kg ([2]; 0.5 h) [%] | responders at 300 mg/kg ([2]; 4 h) [%] | other results |
| --- | --- | --- | --- | --- | --- | --- | --- | --- | --- | --- | --- | --- | --- | --- | --- | --- | --- | --- | --- |
| Cc1cc(C(O)C(F)(F)F)ccc1O (stereo not shown) [RM170, 2-Methyl-4-(2,2,2-trifluoro-1-hydroxy-ethyl)-phenol] | 0/3 | 0/8 | 0/3 | 0/3 | 0/4 | 1/4 | 1/4 | 0 | 0 | 0 | 100 | 100 | 0 | 0 | 0 | 0 | 0 | 0 | Toxicity, animals/number of animals tested (rotorod test; dose 100 mg/kg ip, 6 h): 0/3; Toxicity, animals/number of animals tested (rotorod test; dose 30 ip, 0.5 h): 0/4; Toxicity, animals/number of animals tested (rotorod test; dose 30 ip, 4 h): 0/2; Toxicity, animals/number of animals tested (rotorod test; dose 300 ip, 0.5 h): 0/4; Toxicity, animals/number of animals tested (rotorod test; dose 300 ip, 4 h): 0/2; evidence of toxicity (rotorod test; doses up to 300 mg/kg): Neither RM170 nor RM166 showed any evidence of toxicity; Protective effects, number of animals protected/number of animals tested (6 Hz (32 mA) model; 0.25 h): 0/4; Protective effects, number of animals protected/number of animals tested (6 Hz (32 mA) model; 0.5 h): 0/4; Protective effects, number of animals protected/number of animals tested (6 Hz (32 mA) model; 1 h): 2/4; animals in which seizures were inhibited (6 Hz (32 mA) model; 6 Hz, 100 mg/kg, any time point from 0.25 to 4 h): no more than 2 of 4; MES protection ([1]; 300 mg/kg dose): some protection; MES protection, time points after dosing ([1]; 300 mg/kg dose): protection at both 0.5 and 4 h; responders at 100 mg/kg ([1]; 0.25 h): 0%; responders at 100 mg/kg ([1]; 1 h): 0%; responders at 100 mg/kg ([1]; 2 h): 0%; responders at 100 mg/kg ([1]; 6 h): 0% |
| CCCc1cc(C(O)C(F)(F)F)cc(Br)c1O (stereo not shown) [RM1204, 2-Bromo-6-n-propyl-4-(2,2,2-trifluoro-1-hydroxy-ethyl)-phenol] | 1/4 | 0/4 | 1/4 | 0/4 | 0/4 | 0/4 | 0/4 | 0 | 0 | 0 | 0 | 0 | 0 | 0 | 0 | 0 | 0 | 0 | toxicity (rotorod test; mouse, in vivo): only low toxicity; Protective effects, number of animals protected/number of animals tested (6 Hz (32 mA) model; 0.25 h, 100 mg/kg): 4/4 and complete protection; Protective effects, number of animals protected/number of animals tested (6 Hz (32 mA) model; 0.5 h, 100 mg/kg): 4/4 and complete protection; Protective effects, number of animals protected/number of animals tested (6 Hz (32 mA) model; 1 h, 100 mg/kg): partial protection and 2/4; responders at 30 mg/kg ([1]; 4 h): 0%; MES protection ([1]; any dose (30-300 mg/kg ip)): no MES protection |
